# Entries after “also recorded” stand apart in the source; their conditions may differ.
# Experiments:
# [1] = tested on: RPE injury by laser photocoagulation in Dutch-belted rabbits; assay: In vivo laser injury model: fundus photos and OCT imaging; parameters: species or system rabbit; conditions: listed as LKI; for OCT appearance of RPE layer at laser spots compared to control / pigmentation of laser spots on fundus photos compared to control: intravitreal 50 μL of 15 mM
# Source text: Laser photocoagulation was used as a model for RPE injury in vivo. Prior to laser photocoagulation, Dutch-belted rabbits were sedated with ketamine and xylazine. Eyes were anesthetized with topical proparacaine and dilated with phenylephrine and tropicamide. Lubricating drops and gel were applied to prevent desiccation of the cornea.
# To evaluate the effect of LATS kinase inhibition on the RPE injury response in vivo, following sedation and pharmacologic dilation, laser photocoagulation was delivered in a 6×6 grid pattern to both eyes with a 532 nm green laser (Iridex Corporation, Mountain View, CA, USA) mounted on an indirect ophthalmoscope. Power was set to 170 mW and pulse duration was set to 40 ms. Following the laser procedure, fundus photos of both eyes were obtained using a 28-diopter lens and smartphone. OCT images of both eyes were obtained on a SPECTRALIS (Heidelberg Engineering, Heidelberg, Germany) imaging system. Fundus photos and OCT images were again obtained at 1- and 4-week time points.
# Dutch-belted rabbits were sedated and underwent photocoagulation of both eyes as described above, with the exception of lesion intensity alteration. Instead, laser power was held at 170 mW and pulse duration remained at 40 ms.
# (§1) Following the laser procedure, the eyes were anesthetized once more with topical proparacaine. Povidone-iodine was applied to the conjunctiva or sclera using sterile Q-tips. Either 50 μL of 15 mM LATS kinase inhibitor (LKI), or vehicle control, was injected per eye using 1 mL Luer-lock syringe with a 27G 1½ inch needle. The second generation LKI, TDI-011536, was used as a micro-suspension formulation prepared in phosphate buffer solution (PBS; Sigma) supplemented with 0.5% carboxymethyl cellulose (Sigma) and 0.5% Kolliphor P 188 Bio (BASF Pharma). Intravitreal injections containing LKI were administered in the right eye and control injections were administered in the left eye. Injections were administered 1-2 mm posterior to the superotemporal or superonasal limbus and delivery of each compound was confirmed on indirect ophthalmoscopy.
# To evaluate the effect of Lats kinase inhibition on the RPE injury response in vivo, 17 Dutch-belted rabbits received photocoagulation procedure to cause focal disruptions of the RPE and photoreceptor layers in a 6×6 grid of laser spots. Following photocoagulation, each animal received an intravitreal injection of 50 μL of 15 mM LKI in the right eye ([…]) and 50 μL vehicle in the left eye (n=17 eyes). Fundus photos and OCT imaging were performed immediately following the laser procedure and at 1- and 4-week time points. Three independent experiments were performed.
# Dutch-belted rabbits = assay: Toxic effects / tolerability of intravitreal injection in vivo; parameters: species or system rabbit
# Method: as §1
# Solubility of the drug = assay type: physicochemical
# [2] = tested on: primary human fetal RPE monolayers; assay: PAX6 / RPE differentiation marker expression of EdU+ RPE cells after scratch; assay type: cell-based
# Method: Ninety-six hours after the scratch, cells were immediately fixed with 4% paraformaldehyde (PFA) in phosphate-buffered saline (PBS) for 15 minutes at room temperature (RT). Cells were washed three times with PBS in between each step. Following fixation, cells were blocked and permeabilized with 3% bovine serum albumin (BSA) and 0.1% Triton X-100 in PBS for 2 hours at RT. Cells were then incubated with an EdU reaction cocktail according to the manufacturer's instructions for 30 minutes at RT, protected from light. Then, cells were incubated overnight with primary antibodies diluted in 3% BSA in PBS. The following morning, cells were incubated with secondary antibodies diluted in 3% BSA in PBS for 2 hours at RT, protected from light. Cells were counterstained with DAPI and then washed. A list of reagents and dilutions used can be found in Table 1.
# Within each region, cell proliferation was quantified by dividing EdU/DAPI doubly positive cells by the total number of DAPI+ cells, expressed as a percentage. PAX6 expression was quantified as the ratio of PAX6+ nuclei among EdU/DAPI doubly positive nuclei, also expressed as a percentage.
# In order to characterize RPE cell fate in response to Lats kinase inhibition in the context of injury, cells were stained with PAX6 and RPE65.
smiles,measurement,setting,value
O=C(/N=c1\scc(CO)n1Cc1ccccc1)c1c[nH]c2ncccc12 [TDI-011536],OCT appearance of RPE layer at laser spots compared to control,[1]; 1 week after laser,thickening of the RPE layer with associated shadowing; also recorded: Shadowing (*) was common; also recorded: appeared thicker with increased shadowing
same,pigmentation of laser spots on fundus photos compared to control,[1]; 1 week after laser,hyperpigmentation of laser spots; also recorded: increased pigmentation
same,OCT appearance of RPE layer at laser spots compared to control,[1]; 4 weeks after laser,more pronounced; also recorded: Shadowing (*) was common; also recorded: significantly increased thickness of the RPE layer
same,pigmentation of laser spots on fundus photos compared to control,[1]; 4 weeks after laser,more pronounced; also recorded: robust increase in pigmentation
same,persistence of LKI microsuspension (depot) in the eye,"[1]; rabbit eye, intravitreal 50 μL of 15 mM microsuspension",visible after 1 week; also recorded: up to a month
same,tolerability of intravitreal injection,Dutch-belted rabbits; animal model,well-tolerated
same,toxic effects in vivo,"Dutch-belted rabbits; rabbit, in vivo",no toxic effects
same,solubility (in words),Solubility of the drug,highly insoluble
same,"EdU/PAX6 doubly positive cells in the scratch site, LKI vs control (in words)",[2]; 96 hours post-scratch,no significant difference
same,EdU+ cells within the original scratch site that expressed PAX6,"[2]; 96 hours post-scratch, scratch site",99.67±1.46%
same,expression of early and late markers of RPE differentiation (in words),"[2]; in vitro injury model, after exposure",nearly all RPE cells expressed both early and late markers of RPE differentiation
